Data taken from patent US20260240810A1, “COMPOSITIONS AND METHODS FOR REDUCING ADVERSE SIDE EFFECTS IN CANCER TREATMENT” (priority 2022, published 2026).

Experiment: PREVLAR trial: adverse events
Assay type: in vivo, human
Source text: Of potential significance for OM, decreased rates of several pathognomonic toxicities were seen (see Table 4).
• CTCAEv.4 are a set of criteria for the standardized classification of AEs of drugs used in cancer therapy.

[1] = Arm 1: RRx-001 Pre-treatment + SOC Chemoradiation (N = 12)
[2] = Arm 1: RRx-001 pretreatment + SOC chemoradiation
[3] = Arm 2: RRx-001 Pre-treatment + 2 Concurrent Doses + SOC Chemoradiation (N = 11)
[4] = Arm 2: RRx-001 pretreatment + 2 concurrent doses + SOC chemoradiation
[5] = Arm 3: RRx-001 Pre-treatment + 6 Concurrent Doses + SOC Chemoradiation (N = 13)
[6] = Arm 3: RRx-001 pretreatment + 6 concurrent doses + SOC chemoradiation

## O=C(CBr)N1CC([N+](=O)[O-])([N+](=O)[O-])C1 [RRx-001, 2-bromo-1-(3,3-dinitroazetidin-1-yl) ethan-1-one]
Arm 1
  Related anemia: 0%
  neutrophil count decrease: 0%
  related oral dysesthesia: 0%
  related vomiting: 1%
Arm 1, p=0.0007 vs control
  radiation-induced skin injury: none
Arm 1, p=0.0095 vs control
  Oral pain: 0%
  related constipation: 0%
[1]
  reported adverse events (CTCAEv.4): Anemia: 0 (0)
  reported adverse events (CTCAEv.4): Blood creatinine increased: 0 (0)
  reported adverse events (CTCAEv.4): Blood urea increased: 0 (0)
  reported adverse events (CTCAEv.4): Candida infection: 0 (0)
  reported adverse events (CTCAEv.4): Constipation: 0 (0)
  reported adverse events (CTCAEv.4): Decreased appetite: 0 (0)
  reported adverse events (CTCAEv.4): Dermatitis: 0 (0)
  reported adverse events (CTCAEv.4): Dry mouth: 0 (0)
  reported adverse events (CTCAEv.4): Dysgeusia: 0 (0)
  reported adverse events (CTCAEv.4): Dysphagia: 0 (0)
  reported adverse events (CTCAEv.4): Glossodynia: 0 (0)
  reported adverse events (CTCAEv.4): Laryngeal inflammation: 0 (0)
  reported adverse events (CTCAEv.4): Neutrophil count decreased: 0 (0)
  reported adverse events (CTCAEv.4): Oral candidiasis: 1 (8.3)
  reported adverse events (CTCAEv.4): Oral dysaesthesia: 0 (0)
  reported adverse events (CTCAEv.4): Oral dysesthesia: 0 (0)
  reported adverse events (CTCAEv.4): Oral pain: 0 (0)
  reported adverse events (CTCAEv.4): Platelet count decreased: 0 (0)
  reported adverse events (CTCAEv.4): Radiation skin injury: 0 (0)
  reported adverse events (CTCAEv.4): Salivary duct inflammation: 0 (0)
  reported adverse events (CTCAEv.4): Vomiting: 1 (8.3)
  reported adverse events (CTCAEv.4): Weight decreased: 0 (0)
  reported adverse events (CTCAEv.4): White blood cell count decreased: 0 (0)
[2]
  SAE frequency: Anemia: 8.3%
  SAE frequency: Atrial flutter: 8.3%
  SAE frequency: Decreased appetite: 8.3%
  SAE frequency: Dysgeusia: 8.3%
  SAE frequency: Febrile neutropenia: 8.3%
  SAE frequency: Hypertension: 8.3%
  SAE frequency: Hypoacusis: 8.3%
  SAE frequency: Hypokalemia: 8.3%
  SAE frequency: Lymphocyte count decreased: 33.3%
  SAE frequency: Nausea: 8.3%
  SAE frequency: Neutrophil count decreased: 8.3%
  SAE frequency: Oropharyngeal pain: 16.7%
  SAE frequency: Respiratory tract infection: 8.3%
  SAE frequency: Vomiting: 8.3%
  SAE frequency: Weight decreased: 8.3%
  SAE frequency: White blood cell count decreased: 16.7%
Arm 2
  Oral pain: 9.1%
  Related anemia: 0%
  neutrophil count decrease: 0%
  radiation-induced skin injury: 18.2%
  related constipation: 0%
  related oral dysesthesia: 0%
  related vomiting: 1%
[3]
  reported adverse events (CTCAEv.4): Anemia: 0 (0)
  reported adverse events (CTCAEv.4): Blood creatinine increased: 2 (18.2)
  reported adverse events (CTCAEv.4): Blood urea increased: 0 (0)
  reported adverse events (CTCAEv.4): Candida infection: 1 (9.1)
  reported adverse events (CTCAEv.4): Constipation: 0 (0)
  reported adverse events (CTCAEv.4): Decreased appetite: 0 (0)
  reported adverse events (CTCAEv.4): Dermatitis: 0 (0)
  reported adverse events (CTCAEv.4): Dry mouth: 0 (0)
  reported adverse events (CTCAEv.4): Dysgeusia: 0 (0)
  reported adverse events (CTCAEv.4): Dysphagia: 0 (0)
  reported adverse events (CTCAEv.4): Glossodynia: 0 (0)
  reported adverse events (CTCAEv.4): Laryngeal inflammation: 0 (0)
  reported adverse events (CTCAEv.4): Neutrophil count decreased: 0 (0)
  reported adverse events (CTCAEv.4): Oral candidiasis: 0 (0)
  reported adverse events (CTCAEv.4): Oral dysaesthesia: 0 (0)
  reported adverse events (CTCAEv.4): Oral dysesthesia: 0 (0)
  reported adverse events (CTCAEv.4): Oral pain: 1 (9.1)
  reported adverse events (CTCAEv.4): Platelet count decreased: 0 (0)
  reported adverse events (CTCAEv.4): Radiation skin injury: 2 (18.2)
  reported adverse events (CTCAEv.4): Salivary duct inflammation: 0 (0)
  reported adverse events (CTCAEv.4): Vomiting: 1 (9.1)
  reported adverse events (CTCAEv.4): Weight decreased: 0 (0)
  reported adverse events (CTCAEv.4): White blood cell count decreased: 0 (0)
[4]
  SAE frequency: Acute kidney injury: 18.2%
  SAE frequency: Alanine aminotransferase increased: 9.1%
  SAE frequency: Anemia: 9.1%
  SAE frequency: Blood creatinine increased: 9.1%
  SAE frequency: Candida infection: 9.1%
  SAE frequency: Colitis: 9.1%
  SAE frequency: Deafness: 9.1%
  SAE frequency: Decreased appetite: 9.1%
  SAE frequency: Device related thrombosis: 9.1%
  SAE frequency: Dysphagia: 9.1%
  SAE frequency: Flank pain: 9.1%
  SAE frequency: Hypokalemia: 9.1%
  SAE frequency: Hypophosphatasemia: 9.1%
  SAE frequency: Laryngeal inflammation: 9.1%
  SAE frequency: Leukocytosis: 9.1%
  SAE frequency: Lymphocyte count decreased: 72.7%
  SAE frequency: Nausea: 9.1%
  SAE frequency: Neutrophil count decreased: 27.3%
  SAE frequency: Oral pain: 9.1%
  SAE frequency: Oropharyngeal pain: 9.1%
  SAE frequency: Stomatitis: 9.1%
  SAE frequency: Sudden death: 9.1%
  SAE frequency: White blood cell count decreased: 36.4%
[5]
  reported adverse events (CTCAEv.4): Anemia: 4 (30.8)
  reported adverse events (CTCAEv.4): Blood creatinine increased: 0 (0)
  reported adverse events (CTCAEv.4): Blood urea increased: 0 (0)
  reported adverse events (CTCAEv.4): Candida infection: 3 (23.1)
  reported adverse events (CTCAEv.4): Constipation: 0 (0)
  reported adverse events (CTCAEv.4): Decreased appetite: 4 (30.8)
  reported adverse events (CTCAEv.4): Dermatitis: 0 (0)
  reported adverse events (CTCAEv.4): Dry mouth: 4 (30.8)
  reported adverse events (CTCAEv.4): Dysgeusia: 7 (53.8)
  reported adverse events (CTCAEv.4): Dysphagia: 2 (15.4)
  reported adverse events (CTCAEv.4): Glossodynia: 0 (0)
  reported adverse events (CTCAEv.4): Laryngeal inflammation: 0 (0)
  reported adverse events (CTCAEv.4): Neutrophil count decreased: 1 (7.7)
  reported adverse events (CTCAEv.4): Oral candidiasis: 1 (7.7)
  reported adverse events (CTCAEv.4): Oral dysaesthesia: 0 (0)
  reported adverse events (CTCAEv.4): Oral dysesthesia: 0 (0)
  reported adverse events (CTCAEv.4): Oral pain: 4 (30.8)
  reported adverse events (CTCAEv.4): Platelet count decreased: 3 (23.1)
  reported adverse events (CTCAEv.4): Radiation skin injury: 4 (30.8)
  reported adverse events (CTCAEv.4): Salivary duct inflammation: 1 (7.7)
  reported adverse events (CTCAEv.4): Vomiting: 3 (23.1)
  reported adverse events (CTCAEv.4): Weight decreased: 2 (15.4)
  reported adverse events (CTCAEv.4): White blood cell count decreased: 1 (7.7)
[6]
  SAE frequency: Complication associated with device: 7.7%
  SAE frequency: Decreased appetite: 15.4%
  SAE frequency: Dry Mouth: 7.7%
  SAE frequency: Dysphagia: 30.8%
  SAE frequency: Embolism: 7.7%
  SAE frequency: Gastric Perforation: 7.7%
  SAE frequency: Gastrointestinal tube insertion: 15.4%
  SAE frequency: Hypocalcemia: 7.7%
  SAE frequency: Hypokalemia: 7.7%
  SAE frequency: Hypophosphatasemia: 7.7%
  SAE frequency: Hypotension: 7.7%
  SAE frequency: Lung infection: 7.7%
  SAE frequency: Lymphocyte count decreased: 53.8%
  SAE frequency: Nausea: 7.7%
  SAE frequency: Neutrophil count decreased: 30.8%
  SAE frequency: Oral dysaesthesia: 7.7%
  SAE frequency: Oral dysesthesia: 7.7%
  SAE frequency: Oral pain: 7.7%
  SAE frequency: Oropharyngeal pain: 7.7%
  SAE frequency: Salivary duct inflammation: 7.7%
  SAE frequency: Stomatitis: 7.7%
  SAE frequency: Swelling face: 7.7%
  SAE frequency: Tumor pain: 7.7%
  SAE frequency: Vomiting: 7.7%
  SAE frequency: Weight decreased: 7.7%
  SAE frequency: White blood cell count decreased: 30.8%
Arms 1 and 2, vs control 30%, N.S.
  incidence of salivary duct inflammation: none
Arms 1 and 2, vs control 60%, p=0.0028
  incidence of dry mouth: none
Arms 1 and 2, vs control 70%, p=0.0007
  incidence of dysphagia: none
PREVLAR
  SAEs attributed to RRx-001: none were attributed to RRx-001
  toxicity attributed to RRx-001: discomfort during infusion
RRx-001-treated patients vs control 50%, p=0.0095
  weight loss: none
RRx-001 treatment vs control
  impact on marrow-related AEs (anemia, neutropenia), renal function or the incidence of candidiasis: did not statistically impact
infusion
  character of toxicity attributable specifically to RRx-001: localized, mild, and transient
